The target of the test is T1, IRAK-4 (Homo sapiens, UniProt Q9NWZ3).
T1 sequence (Q9NWZ3 1-460): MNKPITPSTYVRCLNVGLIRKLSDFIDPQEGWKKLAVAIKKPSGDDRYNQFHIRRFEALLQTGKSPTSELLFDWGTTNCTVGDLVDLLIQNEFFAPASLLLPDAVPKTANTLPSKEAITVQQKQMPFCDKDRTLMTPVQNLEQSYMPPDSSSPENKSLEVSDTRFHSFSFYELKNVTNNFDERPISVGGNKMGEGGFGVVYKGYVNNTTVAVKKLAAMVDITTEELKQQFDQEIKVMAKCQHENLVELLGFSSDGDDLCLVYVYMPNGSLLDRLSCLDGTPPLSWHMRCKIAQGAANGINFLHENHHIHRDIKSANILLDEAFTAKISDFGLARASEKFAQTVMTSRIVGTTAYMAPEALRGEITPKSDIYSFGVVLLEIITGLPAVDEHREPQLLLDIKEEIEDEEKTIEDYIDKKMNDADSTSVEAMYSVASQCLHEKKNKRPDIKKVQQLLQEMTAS
The test is described as follows: IRAK-4 activity inhibition assay (Caliper). Format: biochemical. Conditions: 3.5 nM IRAK4, 37 μM ATP, 1.5 μM Peptide 8, 28° C. 40 minutes. How it is done: A 1× kinase base buffer was prepared from 50 mM HEPES, pH 7.5 and 0.0015% Brij-35. A stop buffer was prepared from 100 mM HEPES, pH 7.5, 0.015% Brij-35, 0.2% Coating Reagent #3, and 50 mM EDTA.
Test compound was diluted to 50× of the final desired highest inhibitor concentration in reaction by 100% DMSO. 100 ul of this compound dilution was transferred to a well in a 96-well plate.
Test compound was serially diluted by transferring 30 μl to 60 μl of 100% DMSO in the next well and so forth for a total of 10 concentrations. 100 μl of 100% DMSO was added to two empty wells for no compound control and no enzyme control in the same 96-well plate.
A new 96-well plate was marked as intermediate plate. 5 μl of compound serial dilution was transferred from source plate to the corresponding wells of the intermediate plate. 45 μl of 1× kinase base buffer (KB buffer) was added to each well of the intermediate plate. The intermediate plate was placed for 10 min on a shaker.
5 μl of each well was transferred from the 96-well intermediate plate to a 384-well plate in duplicates. For example, A1 of the 96-well plate is transferred to A1 and A2 of the 384-well plate. A2 of the 96-well plate is transferred to A3 and A4 of the 384-well plate, and so on.
IRAK4 and DTT in 1× kinase base buffer was added. The 2.5× enzyme mix contained 8.8 nM IRAK4 and 5 mM DTT.
Peptide 8, ATP, MgCl2 and MnCl2 were added in the 1× kinase base buffer. The 2.5× peptide mix contained 3.75 μM peptide 8, 92.5 μM ATP, 12.5 mM MgCl2 and 2.5 mM MnCl2.
Assay plate already contained 5 μl of compound in 10% DMSO. Added 10 μl of 2.5× enzyme solution to each well of the 384-well assay plate, except no enzyme control wells. The final concentration of IRAK4 in reaction was 3.5 nM. Added 10 μl of 1× kinase base buffer to no enzyme control wells in the assay plate. Incubated at room temperature for 10 min.
Added 10 μl of 2.5× peptide solution to each well of the 384-well assay plate. The final concentration of Peptide 8 and ATP was 1.5 μM and 37 μM, respectively. Incubated at 28° C. for 40 minutes. Added 25 μl of stop buffer to stop reaction. Collected data on Caliper.
Copied conversion % data from Caliper program. Converted conversion % values to percent inhibition values. Percent inhibition=(max−conversion %)/(max−min)*100, where “max” means the conversion % of DMSO control and “min” means the conversion % of no enzyme control.

pIC50: −log10 of the molar value.

Regarding `N[C@H]1CC[C@H](Nc2ccnc3sc4c(c23)CCC4)CC1` [Compound I-205], the pIC50 (commonly the negative decadic logarithm of the IC50, by convention in mol/L) is no less than 5.30.

For the compound `CN(C)[C@H]1CC[C@H](Nc2ccnc3sc4c(c23)CCC4)CC1` [Compound I-4, 1-N,1-N-dimethyl-4-N-[7-thia-9-azatricyclo[6.4.0.0^[2,6]]dodeca-1(12),2(6),8,10-tetraen-12-yl]cyclohexane-1,4-diamine], the pIC50 is no less than 5.30.

Consider `Cn1cc(Nc2cc(N[C@H]3CC[C@H](N4CCOCC4)CC3)c3c4c(sc3n2)CCC4)cn1` [Compound I-208, N2-(1-methyl-1H-pyrazol-4-yl)-N4-((1r,4r)-4-morpholinocyclohexyl)-6,7-dihydro-5H-cyclopenta[4,5]thieno[2,3-b]pyridine-2,4-diamine], for which the pIC50 is 4.30 to 4.70.

In the case of `CN[C@H]1CC[C@H](Nc2ccnc3sc4c(c23)CCC4)CC1` [Compound I-206, 1-N-methyl-4-N-[7-thia-9-azatricyclo[6.4.0.0[2,6]]dodeca-1(12),2(6),8,10-tetraen-12-yl]cyclohexane-1,4-diamine], the negative-log IC50 (pIC50) was no less than 5.30.

On to `c1cc(N[C@H]2CC[C@H](N3CCOCC3)CC2)c2c3c(sc2n1)CCC3` [Compound I-2], for which the pIC50 was no less than 5.30.

For `CN(CC(=O)N1CCCC1)[C@H]1CC[C@H](Nc2ccnc3sc4c(c23)CCC4)CC1` [Compound I-207, 2-[methyl[4-([7-thia-9-azatricyclo[6.4.0.0[2,6]]dodeca-1(8),2(6),9,11-tetraen-12yl]amino)cyclohexyl]amino]-1-(pyrrolidin-1-yl)ethan-1-one], the negative-log IC50 (pIC50) was no less than 5.30.

`CN(C)[C@H]1CC[C@H](Oc2ccnc3sc4c(c23)CCC4)CC1` [Compound I-1] had a pIC50 of no less than 5.30.

Regarding `c1cc(O[C@H]2CC[C@H](N3CCOCC3)CC2)c2c3c(sc2n1)CCC3` [Compound I-3], the pIC50 is no less than 5.30.

These data come from patent publication US9067948B2 (Nimbus Iris, Inc., priority 2012, dated 2015).
